Data on 6 compounds can be found in patent US9289496B2, “Lipid dipeptide and gel” (Nissan Chemical Industries, Ltd., priority 2008, dated 2016).

Data set [1] can be described thus: Evaluation of gelation of lipid peptides with pure water. It counts as physicochemical. As to the method:
Each of the lipid peptides synthesized in Examples 1, 6, 7, 8, and 10 was placed in a sample tube. Pure water (without metals and ions) was added so that a solution would have a lipid peptide concentration of 0.25 or 0.5% (w/v) (w means mass (g), and v means volume (mL)). The mixture was heated at 90° C. or more to dissolve the lipid peptide, and then allowed to cool.

A short description of data set [2]: Evaluation of gelation of lipid peptides with phosphate buffer. The class given is physicochemical. The procedure: Each of the lipid peptides synthesized in Examples 3 to 10 and Example 14 was placed in a sample tube. Each of three phosphate buffers (PBS) (pH=2.6, 7.4, or 10) was added so that a solution would have a lipid peptide concentration of 0.25 or 0.5% (w/v) (conditions A to F). Then, the mixture was heated at 90° C. or more to dissolve the lipid peptide, and then allowed to cool.

Where [3] appears, read: acidic region (pH=2.6), concentration 0.25%.
The mark [4] stands for this setting: acidic region (pH=2.6), concentration 0.5%.
The mark [5] stands for this setting: condition A: phosphate buffer pH = 2.6, 0.5% (w/v).
Setting [6] is: condition B: phosphate buffer pH = 2.6, 0.25% (w/v).
Setting [7] is: condition C: phosphate buffer pH-7.4, 0.5% (w/v).
Where [8] appears, read: condition D: phosphate buffer pH-7.4, 0.25% (w/v).
Where [9] appears, read: condition E: phosphate buffer pH = 10, 0.5% (w/v).

The structures appear in SMILES notation. Residues, ends and D or L forms follow the SMILES beside them.

In the case of `CCCCCCCCCCCC(=O)NCC(=O)N[C@@H](Cc1c[nH]cn1)C(=O)O.O=C(O)C(F)(F)F` [Example 6, N-Lauroyl-Gly-His.TFA Salt] (HELM PEPTIDE1{[CCCCCCCCCCCC(=O)[*:2]].G.H}$$$$V2.0), the Gelation entry in data set [1] (lipid peptide 0.25% (w/v)), in data set [1] (lipid peptide 0.50% (w/v)), in data set [2] (setting [5]), in data set [2] (setting [6]), in data set [2] (setting [7]) and in data set [2] (setting [8]) was “◯” in each case. The Gelation entry is recorded as “◯” in data set [2] (setting [9]) and “◯” in data set [2] (condition F: phosphate buffer pH = 10, 0.25% (w/v)). Moreover, the “Gel formation” value in data set [2] (setting [3]) is recorded as “formed gels”; in data set [2] (setting [4]), “formed gels”; in data set [2] (basic region (pH=10), concentration 0.25%), “formed a gel”.
`CCCCCCCCCCCCCCCCCCCCCC(=O)NCC(=O)N[C@@H](Cc1c[nH]cn1)C(=O)O.O=C(O)C(F)(F)F` [Example 7, N-Behenoyl-Gly-His.TFA Salt]: the Gelation entry in data set [1] (lipid peptide 0.25% (w/v)), in data set [1] (lipid peptide 0.50% (w/v)), in data set [2] (setting [5]), in data set [2] (setting [7]), in data set [2] (setting [8]) and in data set [2] (setting [9]) was “◯” each time. In addition, in data set [2] (setting [4]), the “Gel formation” value is recorded as “formed gels”.
Regarding `CCCCCCCCCCCCCC(=O)NCC(=O)N[C@@H](Cc1c[nH]cn1)C(=O)O.O=C(O)C(F)(F)F` [Example 8, N-Myristoyl-Gly-His.TFA Salt] (HELM PEPTIDE1{[CCCCCCCCCCCCCC(=O)[*:2]].G.H}$$$$V2.0), the Gelation entry in data set [1] (lipid peptide 0.25% (w/v)), in data set [1] (lipid peptide 0.50% (w/v)), in data set [2] (setting [5]), in data set [2] (setting [6]), in data set [2] (setting [7]) and in data set [2] (setting [8]) was “◯” throughout. Further, the Gelation entry in data set [2] (setting [9]) was “◯”. The “Gel formation” value in data set [2] (setting [3]) and in data set [2] (setting [4]) was “formed gels” in each case.
Turning to `CCCCCCCCCCCCCCCC(=O)N[C@@H](C)C(=O)N[C@@H](Cc1c[nH]cn1)C(=O)O.O=C(O)C(F)(F)F` [Example 10, N-Palmitoyl-Ala-His.TFA salt] (HELM PEPTIDE1{[CCCCCCCCCCCCCCCC(=O)[*:2]].A.H}$$$$V2.0), the Gelation result in data set [1] (lipid peptide 0.25% (w/v)), in data set [1] (lipid peptide 0.50% (w/v)), in data set [2] (setting [5]), in data set [2] (setting [6]), in data set [2] (setting [7]) and in data set [2] (setting [8]) was “◯” throughout. The Gelation entry in data set [2] (setting [9]) is listed as “◯”. In addition, the “Gel formation” value in data set [2] (setting [3]) and in data set [2] (setting [4]) was “formed gels” in each case.
For the compound `CCCCCCCCCCCCCCCC(=O)N[C@H](C(=O)N[C@@H](Cc1c[nH]cn1)C(=O)O)C(C)C.O=C(O)C(F)(F)F` [Example 11, N-Palmitoyl-Val-His.TFA Salt] (HELM PEPTIDE1{[CCCCCCCCCCCCCCCC(=O)[*:2]].V.H}$$$$V2.0), the Gelation result in data set [2] (setting [7]), in data set [2] (setting [8]) and in data set [2] (setting [9]) was “◯” throughout.
As for `CCCCCCCCCCCCCCCC(=O)N[C@@H](Cc1c[nH]cn1)C(=O)NCC(=O)O.O=C(O)C(F)(F)F` [Example 14, N-Palmitoyl-His-Gly.TFA Salt] (HELM PEPTIDE1{[CCCCCCCCCCCCCCCC(=O)[*:2]].H.G}$$$$V2.0), the Gelation result in data set [2] (setting [7]), in data set [2] (setting [8]) and in data set [2] (setting [9]) was “◯” throughout.
